# US8628754B2, “Highly efficient delivery of a large therapeutic mass aerosol” (Civitas Therapeutics, Inc., priority 2000, dated 2014)
# Like-named read-outs stand apart in the source and are kept apart here.
# Legend:
# [1] = test system: rat model of Parkinson's disease; test: Akinesia task; format: in vivo
# [2] = test system: rat model of Parkinson's disease; test: Bracing task; format: in vivo
# [3] = test system: rat model of Parkinson's disease; test: Rotation test; format: in vivo
# [4] = oral gavage, 8 mg in saline with 1% methylcellulose, carbidopa pre-treatment, 0-30 min
# [5] = test system: rat model of Parkinson's disease; test: Placing task; format: in vivo
# [6] = Geometric diameter emitted from breath-activated inhaler (IHA/HELOS); format: physicochemical; details: 5 mg in size #2 capsule
# Experimental: To further evaluate the ability of the three powders to emit from a simple, breath-activated inhaler, Applicants placed 5 mg of each powder in a size #2 methyl cellulose capsule and inserted the capsule into a breath-activated inhaler. It will be appreciated by those skilled in the art that the receptacle into which the powders are placed will depend on the type of inhaler selected. […] The same results were obtained from measurements of the aerodynamic diameter, with spray-dried particles emitting with very similar aerodynamic diameters as compared to the primary particles.
# The geometric diameter emitted from the breath-activated inhaler was measured using an IHA accessory (Sympatec) with the HELOS laser diffractometer. The IHA adapter positions the DPI in front of the measuring zone and allows air to be pulled through the DPI which aerosolizes the powder. Vacuum was drawn at 30 L/min to disperse powder from the AIR inhaler and the geometric diameter was measured by Fraunhofer diffraction.
# Tap density = format: physicochemical
# Description: Tap density can be measured by using instruments known to those skilled in the art such as the Dual Platform Microprocessor Controlled Tap Density Tester (Vankel, N.C.). Tap density is a standard measure of the envelope mass density. Tap density can be determined using the method of USP Bulk Density and Tapped Density, United States Pharmacopia convention, Rockville, Md., 10th Supplement, 4950-4951, 1999. In another embodiment, the particles have a mass median geometric diameter (MMGD) greater than about 5 μm and preferably near to or greater than about 10 μm. In one embodiment, the particles have a MMGD greater than about 5 μm and ranging to about 30 μm. In another embodiment, the particles have a MMGD ranging from about 10 μm to about 30 μm.
# [7] = Geometric diameter by RODOS dry powder disperser / HELOS laser diffraction; format: physicochemical
# Description: The Applicants introduced the powders into and dispersed the powder through an orifice in the RODOS dry powder disperser at varying shear forces by manipulating the regulator pressure of the air stream used to break up the particles. The Applicants obtained the geometric size distribution from the HELOS laser diffractometer as the powder exited and recorded the median value. The data was summarized and plotted as the mass median geometric diameter (MMGD) against pressure.
# To evaluate the deagglomeration properties of the three powders, Applicants introduced the powders into a RODOS dry powder disperser and varied the shear force in order to break up the particles by manipulating the regulator pressure of the air stream. Subsequently, following the manufacturer's instructions, Applicants obtained the geometric size distribution from the HELOS laser diffractometer and recorded the median value. The data was summarized and plotted as […] (MMGD) against pressure.
# Particles of the present invention were further characterized by the following techniques. The primary geometric diameter was measured using a RODOS dry powder disperser (Sympatec, Princeton, N.J.) in conjunction with a HELOS laser diffractometer (Sympatec). Powder was introduced into the RODOS inlet and aerosolized by shear forces generated by a compressed air stream regulated at 4 bar. The aerosol cloud was subsequently drawn into the measuring zone of the HELOS, where it scattered light from a laser beam and produced a Fraunhofer diffraction pattern used to infer the particle size distribution.
# Geometric diameter was determined using a laser diffraction technique (Alkermes SOP #MS-021-005). The equipment consists of a HELOS diffractometer and a RODOS disperser (Sympatec, Inc., Princeton, N.J.). The RODOS disperser applies a shear force to a sample of particles, controlled by the regulator pressure of the incoming compressed air. The dispersed particles travel through a laser beam where the resulting diffracted light pattern produced is collected by a series of detectors. […]
# [8] = Aerodynamic diameter by AeroDisperser/Aerosizer (AeroBreather for emitted size); format: physicochemical; details: AIR inhaler at 30 L/min, FIG. 2B
# Experimental: The primary aerodynamic diameter was measured using an AeroDisperser/Aerosizer (TSI Inc., Amherst, Mass.). The sample powder was aerosolized by an inlet air stream at 1 psi in the AeroDisperser and then accelerated to sonic velocity into the Aerosizer. The Aerosizer measures the time taken for each particle to pass between two fixed laser beams, which is dependent on the particle's inertia. The TOF (time of flight) measurements were subsequently converted into aerodynamic diameters using Stokes law.
# The emitted aerodynamic diameter from the AIR inhaler was determined using the AeroBreather (TSI Inc., Amherst, Mass.) in conjunction with the Aerosizer (TSI, Inc.). The powder was aerosolized from the inhaler at 30 L/min into the AeroBreather chamber and allowed to settle into the Aerosizer.
# Aerodynamic diameter was analyzed using the API AeroDisperser and Aerosizer (TSI, Inc., St. Paul, Minn.) following standard procedures (Alkermes SOP #MS-034-005). Sample powder was introduced and dispersed in the AeroDisperser and then accelerated through a nozzle in the Aerosizer. A direct time-of-flight measurement was made for each particle in the Aerosizer, which was dependent on the particle's inertia. The time-of-flight distribution was then translated into a mass-based aerodynamic particle size distribution using a force balance based on Stokes law.
compound,measurement,setting,value
CC(C(=O)O)c1cccc(C(=O)c2ccccc2)c1 (stereo not drawn) [Ketoprofen],time required to achieve maximum plasma concentration,insufflated rats,< 15 min
same,time required to achieve maximum plasma concentration,orally dosed rats,15 to 60 min
same,time required to achieve maximum plasma concentration,pulmonary delivery route,≤ 10 min
same,"plasma levels of ketoprofen, insufflated versus oral group",t=5 min to t=60 min,significantly higher
same,"plasma levels of ketoprofen, insufflated versus oral group",t=120 min and t=240 min,statistically equivalent
N[C@@H](Cc1ccc(O)c(O)c1)C(=O)O [L-Dopa],time of maximal effects,"[1]; oral, 30 mg/kg",≤ 60 min
same,time to improved performance,"[1]; oral, 30 mg/kg",≤ 30 min
same,lowest dose with statistically significant (p<0.05) improvements,[1]; pulmonary,1.0 mg
same,time of peak benefits,[1]; pulmonary,15 to 30 min
same,time to significant improvements,[1]; pulmonary,≤ 10 min
same,effect on performance,"[2]; oral, 20 mg/kg",slightly improved performance
same,time of maximal effects,"[2]; oral, 30 mg/kg",≤ 60 min
same,time to improved performance,"[2]; oral, 30 mg/kg",≤ 30 min
same,lowest dose with statistically significant improvements,[2]; pulmonary,0.5 mg
same,time of peak benefits,[2]; pulmonary,15 to 30 min
same,time to significant improvements,[2]; pulmonary,≤ 10 min
same,rotation behavior without pre-treatment with carbidopa,[3]; data not shown,virtually eliminated
same,time of peak rotation levels,"[3]; oral, 30 mg/kg",approximately 30 minutes
same,rotations during the first 10-15 minutes,"[3]; oral, 30 mg/kg, carbidopa pre-treatment",< 5 rotations/animal
same,rotations relative to oral delivery within the first 10-15 minutes,"[3]; pulmonary, 2 mg total",greater than 3 times
same,time of peak rotations,"[3]; pulmonary, 2 mg total",25 to 30 min
same,increase in blood levels of L-Dopa over time,[4],modest
same,"difference in drug required to produce equivalent efficacy, oral versus pulmonary",[5]; doses normalized by body weight,~10 fold
same,time of maximal effects,"[5]; oral, 20 mg/kg",60 min
same,time of peak performance,"[5]; oral, 30 mg/kg",1 to 2 h
same,time to improved performance with the impaired limb,"[5]; oral, 30 mg/kg",≤ 30 min
same,lowest dose with significant improvements,[5]; pulmonary,0.5 mg
same,pulmonary dose with recovery comparable to 30 mg/kg given orally,[5]; pulmonary,1 mg
same,time of peak benefits,"[5]; pulmonary, highest dose tested",15 to 30 min
same,time to significant improvements,"[5]; pulmonary, highest dose tested",≤ 10 min
albuterol sulfate [Micronized Alb. Sulfate (1)],geometric diameter emitted from the inhaler,[6],greater than 30 microns
same,ρ (tap density),Tap density,0.26 g/cc
same,primary particle size as measured by RODOS,[7],~2 microns
same,Dg (geometric diameter),[7]; RODOS/HELOS,2.5 μm
same,state of powder exiting the RODOS orifice,[7]; pressures below 2 bars,aggregated state
same,emitted aerodynamic diameter compared to primary aerodynamic diameter,[8],much larger
